From patent publication US20200055871A1, “ACTIVATORS OF THE RETINOIC ACID INDUCIBLE GENE "RIG-I" PATHWAY AND METHODS OF USE THEREOF” (Kineta Immuno-Oncology LLC, priority 2018, published 2020)

Assays:
[1] = tested on: IRF3 signaling pathway in THP1-Lucia™ ISG cells; experiment: THP1-Lucia ISG reporter assay: induction of IRF3-dependent gene expression (secreted luciferase); format: cell-based, human; settings: PMA-differentiated cells, 18 h after stimulation
Summary of the method: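 PMA-differentiated THP-1 reporter cells (ISRE/ISG54 promoter driving secreted luciferase), plus CRISPR IRF3−/− line, treated with compounds at 5–20 μM (mostly 10 μM). Luciferase measured 18 h later; values are fold increase over untreated background, binned from <2.4 to ≥40.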

[2] = tested on: IRF3-deficient THP1-Lucia™ ISG IRF3−/− cells; experiment: THP1-Lucia ISG IRF3−/− reporter assay (IRF3-deficient control cells); format: cell-based, human; settings: compound 5 to 20 μM, 18 h
Experimental: The promoter was comprised of five IFN-stimulated response elements (ISRE) fused to an ISG54 minimal promoter which is unresponsive to NF-kB or AP-1 pathways. […] The IRF3-deficient THP1-Lucia™ ISG IRF3−/−reporter cell line was generated by CRISPR technology from the parent THP1-Lucia™ ISG reporter cell line.
THP1-Lucia™ ISG cells and IRF3-deficient THP1-Lucia™ ISG IRF3−/−cells were differentiated with PMA (100 ng/ml) and stimulated with compounds at the indicated concentrations (5 to 20 μM), positive control, or not treated (background). Luciferase secretion was quantified using the QUANTI-Luc luciferase assay system (InvivoGen) 18 h after stimulation. Data are shown as fold increase luciferase activity over background in Table 7 and represent the IRF3-dependent ISG54 promoter activity by the THP1-Lucia™ ISG cells in response to compounds. […] The fold increase of compounds (10 μM, *20 μM, **5 μM) induced IRF3 dependent luciferase activity is indicated as follows: “≠” indicates less than 2.4 fold increase; “+” indicates a 2.4-4.9 fold increase; “++” indicates a 5-9.9 fold increase; “+++” indicates a 10-19 fold increase; “++++” indicates a 20-39 fold increase; “+++++” indicates greater than or equal to 40 fold increase.

[3] = tested on: murine CT26 colon carcinoma cells; experiment: RIG-I dependent CXCL10 secretion by CT26 cells (ELISA); format: cell-based; settings: supernatant 24 h after stimulation
Summary of the method: (§1)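 CT26 murine colon carcinoma cells, parental or CRISPR RIG-I−/−, seeded and grown 24 hr at 37° C, then treated with compounds at 10 μM, or at 5 or 20 μM for some. Secreted CXCL10 measured by ELISA in supernatants 24 h after treatment and reported in pg/mL bands.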

[4] = tested on: RIG-I deficient CT26 RIG-I−/− cells; experiment: CXCL10 secretion by RIG-I deficient CT26 RIG-I−/− cells (ELISA); format: cell-based, murine; settings: compound 5 to 20 μM, 24 h; further: key: −: about 0 pg/mL of CXCL10, or below the level of quantitation
Summary of the method: as §1

Compound | fold increase of IRF3-dependent luciferase activity over background, THP1 ISG ([1]; 20 μM compound (*)) | fold increase of luciferase activity, THP1 ISG IRF3−/− [2] | CXCL10 secretion, CT26 ([3]; 20 μM compound (*)) | CXCL10 secretion, CT26 RIG-I−/− [4] | fold increase of IRF3-dependent luciferase activity over background, THP1 ISG ([1]; 10 μM compound) | CXCL10 secretion, CT26 ([3]; 10 μM compound) | fold increase of IRF3-dependent luciferase activity over background, THP1 ISG ([1]; 5 μM compound (**)) | CXCL10 secretion, CT26 ([3]; 5 μM compound (**))
Cn1c(C(=O)Nc2cc3ccc4scnc4c3s2)cc2ccccc21 [Example 60, N-{5,12-dithia-3-azatricyclo[7.3.0.0^2,^6]dodeca-1,3,6,8,10-pentaen-11-yl}-1-methyl-1H-indole-2-carboxamide] | +* (a 2.4-4.9 fold increase) | − (less than 0.5 fold above baseline was considered below the level of quantitation) | +* (100-199 pg/mL) | − |  |  |  | 
O=C(Nc1cc2ccc3scnc3c2o1)c1cc2ccccc2cc1OCCCCN1CCOCC1 [Example 56, 3-[4-(morpholin-4-yl)butoxy]-N-{12-oxa-5-thia-3-azatricyclo [7.3.0.0^2,^6]dodeca-1,3,6,8,10-pentaen-11-yl}naphthalene-2-carboxamide] |  | − (less than 0.5 fold above baseline was considered below the level of quantitation) |  | − | + (a 2.4-4.9 fold increase) | +++ (400-799 pg/mL) |  | 
O=C(Nc1nc2ccc3sccc3c2s1)c1cc2ccccc2cc1OCCCCN1CCOCC1 [Example 49, N-{3,10-dithia-5-azatricyclo[7.3.0.0^2,^6]dodeca-1,4,6,8,11-pentaen-4-yl}-3-[4-(morpholin-4-yl)butoxy]naphthalene-2-carboxamide] |  | − (less than 0.5 fold above baseline was considered below the level of quantitation) |  | − | +++ (a 10-19 fold increase) | ++++ (800 to 1599 pg/mL) |  | 
O=C(Nc1nc2ccc3scnc3c2o1)c1cc2ccccc2cc1OCCCCN1CCOCC1 [Example 59, 3-[4-(morpholin-4-yl)butoxy]-N-{3-oxa-10-thia-5,12-diazatricyclo [7.3.0.0^2,^6]dodeca-1,4,6,8,11-pentaen-4-yl}naphthalene-2-carboxamide] |  | − (less than 0.5 fold above baseline was considered below the level of quantitation) |  | − | ++ (a 5-9.9 fold increase) | +++++ (greater than or equal to 1600 pg/ml) |  | 
O=C(Nc1nc2ccc3occc3c2s1)c1cc2ccccc2cc1OCCCCN1CCOCC1 [Example 50, 3-[4-(morpholin-4-yl)butoxy]-N-{10-oxa-3-thia-5-azatricyclo[7.3.0.0^2,^6]dodeca-1,4,6,8,11-pentaen-4-yl}naphthalene-2-carboxamide] |  | − (less than 0.5 fold above baseline was considered below the level of quantitation) |  | − | +++ (a 10-19 fold increase) | ++ (200-399 pg/mL) |  | 
O=C(Nc1nc2ccc3scnc3c2o1)c1cc2ccccc2cc1OCCN1CCOCC1 [Example 58, 3-[2-(morpholin-4-yl)ethoxy]-N-{3-oxa-10-thia-5,12-diazatricyclo [7.3.0.0^2,^6]dodeca-1,4,6,8,11-pentaen-4-yl}naphthalene-2-carboxamide] |  | − (less than 0.5 fold above baseline was considered below the level of quantitation) |  | − | + (a 2.4-4.9 fold increase) | + (100-199 pg/mL) |  | 
N-(3-bromophenyl)-11-methyl-3,10-dithia-5,12-diazatricyclo[7.3.0.0^2,^6]dodeca-1,4,6,8,11-pentaene-4-carboxamide [Example 10] |  | − (less than 0.5 fold above baseline was considered below the level of quantitation) |  | − | + (a 2.4-4.9 fold increase) | +++ (400-799 pg/mL) |  | 
O=C(Nc1nc2ccc3occc3c2s1)c1cc2ccccc2cc1OCCN1CCOCC1 [Example 51, 3-[2-(morpholin-4-yl)ethoxy]-N-{10-oxa-3-thia-5-azatricyclo[7.3.0.0^2,^6]dodeca-1,4,6,8,11-pentaen-4-yl}naphthalene-2-carboxamide] |  | − (less than 0.5 fold above baseline was considered below the level of quantitation) |  | − | +++ (a 10-19 fold increase) | +++ (400-799 pg/mL) |  | 
[N-(7-hydroxybenzo[1,2-d:3,4-d′]bis(thiazole)-2-yl)-3-(4-morpholinobutoxy)-2-naphthamide hydrochloride] [Example 44] |  | − (less than 0.5 fold above baseline was considered below the level of quantitation) |  | − |  | +++ (400-799 pg/mL) | ++** (a 5-9.9 fold increase) | 
O=C(Nc1cc2ccc3scnc3c2s1)c1cc2ccsc2cc1OCCCCN1CCOCC1 [Example 66, N-{5,12-dithia-3-azatricyclo[7.3.0.0^2,^6]dodeca-1,3,6,8,10-pentaen-11-yl}-6-[4-(morpholin-4-yl)butoxy]-1-benzothiophene-5-carboxamide] |  | − (less than 0.5 fold above baseline was considered below the level of quantitation) |  | − | + (a 2.4-4.9 fold increase) | +++++ (greater than or equal to 1600 pg/ml) |  | 
O=C(Nc1nc2ccc3[nH]cnc3c2s1)c1cc2ccccc2cc1OCCN1CCOCC1 [Example 72, 3-[2-(morpholin-4-yl)ethoxy]-N-{3-thia-5,10,12-triazatricyclo[7.3.0.0^2,^6]dodeca-1,4,6,8,11-pentaen-4-yl}naphthalene-2-carboxamide] |  | − (less than 0.5 fold above baseline was considered below the level of quantitation) |  | − | ++ (a 5-9.9 fold increase) | +++ (400-799 pg/mL) |  | 
N-{5,12-dithia-3-azatricyclo[7.3.0.0^2,^6]dodeca-1,3,6,8,10-pentaen-11-yl}-3-[2-(morpholin-4-yl)ethoxy]-[1,1′-biphenyl]-4-carboxamide [Example 61] |  | − (less than 0.5 fold above baseline was considered below the level of quantitation) |  | − | ++++ (a 20-39 fold increase) |  |  | ++** (200-399 pg/mL)
O=C(Nc1nc2ccc3ocnc3c2s1)c1cc2ccccc2cc1OCCN1CCOCC1 [Example 52, 3-[2-(morpholin-4-yl)ethoxy]-N-{10-oxa-3-thia-5,12-diazatricyclo[7.3.0.0^2,^6]dodeca-1,4,6,8,11-pentaen-4-yl}naphthalene-2-carboxamide] |  | − (less than 0.5 fold above baseline was considered below the level of quantitation) |  | − | + (a 2.4-4.9 fold increase) | + (100-199 pg/mL) |  | 
O=C(Nc1cc2ccc3scnc3c2s1)c1cc2ccccc2cc1OCCCCN1CCOCC1 [Example 54, N-{5,12-dithia-3-azatricyclo[7.3.0.0^2,^6]dodeca-1,3,6,8,10-pentaen-11-yl}-3-[4-(morpholin-4-yl)butoxy]naphthalene-2-carboxamide] |  | − (less than 0.5 fold above baseline was considered below the level of quantitation) |  | − | +++ (a 10-19 fold increase) | ++++ (800 to 1599 pg/mL) |  | 
N-[11-(methylsulfanyl)-3,10-dithia-5,12-diazatricyclo[7.3.0.0^2,^6]dodeca-1,4,6,8,11-pentaen-4-yl]-3-[4-(morpholin-4-yl)butoxy]naphthalene-2-carboxamide [Example 37] |  | − (less than 0.5 fold above baseline was considered below the level of quantitation) |  | − | +++ (a 10-19 fold increase) | ++++ (800 to 1599 pg/mL) |  | 
